Values of other authors as cited in US20080286341A1, “Buffered coated nicotine containing products” (priority 2007, published 2008).

How the values were obtained:
[1] = from Handbook of Chemistry and Physics, 85th edition
[2] = smoking a cigarette

Row | SMILES | pKa value (in interval 8.0-9.6) [1] | time to reach the brain after inhalation [2]
1 | NC(=O)C[C@H](N)C(=O)O [Aspargine] | 8.73 | 
2 | CN1CCCC1c1cccnc1 (centres unmarked) [nicotine, 3-(1-methyl-2-pyrrolidinyl)-pyridine] |  | ten
